# Tests used:
# [1] = test system: motor neurons (astrocyte-conditioned medium); assay: Motor neuron survival in medium conditioned by treated spinal astrocyte monolayers (neurotrophic activity produced by spinal astrocytes); type: cell-based, rat; settings: % of motor neurons in cultures with trophic factors
# Method: (§1) The motor-neuron-enriched cultures are prepared using the centrifugation method which was described by R. L. SCHNAAR and A. E. SCHAFFNER, J. Neurosci., 1, 204-217 (1981) and modified by W. CAMU and C. E. HENDERSON, J. Neurosci. Methods, 44, 59-70 (1992). The motor neurons are spread, at a density of 2500 cells per plate, on 35 mm culture plates which have previously been coated with laminin/ornithine in accordance with the method of A. G. ESTEVEZ et al., J. Neurosci., 18 (3), 923-931 (1998). The cultures are then maintained in L15 medium (GIBCO BRL) containing sodium bicarbonate (22 mM), conalbumin (0.1 mg/ml), putrescine (0.1 mM), insulin (5 μg/ml), sodium selenite ([…]), glucose (20 mM), progesterone (21 nM), penicillin (100 IU/ml) and streptomycin (100 μg/ml).
# The astrocytes are obtained from young, one-day-old rats using the slightly modified method of R. P. SANETO and J. DE VELLIS as described in Neurochemistry a practical approach (A. J. TURNER and H. A. St JOHN) IRL Press, Oxford-Washington D.C., pp. 27-63. The spinal cords are dissected out under sterile conditions and freed of meninges and dorsal ganglia. Five to ten spinal cords are transferred into PBS (phosphate buffered saline) and cut before being incubated at 37° C. for 25 minutes in PBS to which 0.25% trypsin has been added. The enzymatic treatment is stopped by adding 10 ml of Dulbecco's modified Eagle medium (DMEM), to which 10% fetal calf serum (FCS) has been added, and the cells are collected by centrifugation. Another step of mechanical dissociation is performed using the end of a 1 ml pipette. The cells are spread, at a density of 1.5-2×10^6 cells per 25 cm^2 of culture medium, in DMEM containing 10% FCS. After 2 days in vitro, the cultures are fed every day. […]
# (§2) The number of motor neurons is estimated by counting the labelled cells in an area of 0.4-1 cm^2 under a microscope which enlarges 200 times. In all cases, the values are expressed as a percentage of the number of motor neurons which are present in cultures maintained using trophic factors. […]
# [2] = test system: motor neurons (astrocyte/motor neuron co-cultures); assay: Neuronal survival in astrocyte/motor neuron co-cultures; type: cell-based, rat; settings: for % of labelled motor neurons, very large motor neurons: vehicle alone = 100 ± 2.8; for % of labelled motor neurons, all the motor neurons: vehicle alone = 100 ± 9.4
# Method: as §1
# (§3) The astrocytes are obtained from young, one-day-old rats using the slightly modified method of R. P. SANETO and J. DE VELLIS as described in Neurochemistry a practical approach (A. J. TURNER and H. A. St JOHN) IRL Press, Oxford-Washington D.C., pp. 27-63. The spinal cords are dissected out under sterile conditions and freed of meninges and dorsal ganglia. Five to ten spinal cords are transferred into PBS (phosphate buffered saline) and cut before being incubated at 37° C. for 25 minutes in PBS to which 0.25% trypsin has been added. The enzymatic treatment is stopped by adding 10 ml of Dulbecco's modified Eagle medium (DMEM), to which 10% fetal calf serum (FCS) has been added, and the cells are collected by centrifugation. Another step of mechanical dissociation is performed using the end of a 1 ml pipette. The cells are spread, at a density of 1.5-2×10^6 cells per 25 cm^2 of culture medium, in DMEM containing 10% FCS. After 2 days in vitro, the cultures are fed every day. When a visible monolayer of cells has been completed, the cultures are stirred at 250 rpm for 48 hours and, on the following day, the monolayers are treated with cytosine arabinoside (10^−5 M) for 48 hours. The astrocyte monolayers are then amplified to a density of five on 35 mm culture plates for initially 25 cm^2 culture flasks.
# The cells are fixed in 4% paraformaldehyde and 0.1% glutaraldehyde in PBS (pH 7.4 and at 4° C. for 15 minutes) and in a cold methanolic solution. The cultures are then washed and the nonspecific sites are blocked with 10% goat serum and 2% bovine serum albumin (BSA) in PBS and treated for immunochemistry using antibodies against the p75 weak affinity neurotrophin receptor or a 200 kD neurofilament protein (Amersham) using the manufacturer's instructions and applying the avidin-biotin-DAB/hydrogen peroxide enhancement reaction.
# The astrocytes are treated with 1,6-dimethyl-8β-hydroxymethyl-10α-methoxyergoline in the following manner: the product is dissolved in methanol, sterilized by filtration and used immediately after preparation. The treatment which is applied to the enriched motor neuron cultures is effected by adding aliquots of solutions of the products to be tested to the L15 medium by spreading. The astrocyte monolayers are exposed to the vehicle or to the solutions of the compound to be tested for 24 hours and at different concentrations. […]
# as §2
# [3] = test system: motor neurons (co-cultures of astrocyte monolayers and motor neurons); assay: Motor neuron survival, co-cultures of astrocyte monolayers and motor neurons; type: cell-based, rat; settings: vehicle alone 43.9 ± 4
# Method: as §1, §3
# The spinal astrocyte cultures consist, to an extent of more than 98%, of flat, polygonal cells which are immunoreactive for the glial fibrillar acid protein (GFAP). The monolayers are exposed to the product to be tested and then incubated with the motor neuron medium in order to obtain a conditioned culture medium. […]
# as §2
# [4] = test system: trophic factor-deprived motor neurons; assay: Neuronal death in motor-neuron-enriched cultures in the absence of trophic factor; type: cell-based
# Method: as §1
# More than 70% of the cells are immunoreactive for the neurotrophin p75 receptor and the Islet ½ markers for spinal motor neurons. Approximately 70% of the motor neurons die by apoptosis 24 hours after the spreading if the culture is performed in the absence of a trophic factor. […]
# as §2
smiles,measurement,setting,value
"CO[C@]12C[C@@H](CO)CN(C)[C@@H]1Cc1cn(C)c3cccc2c13 [1,6-Dimethyl-8β-hydroxymethyl-10α-methoxyergoline]",Motor neuron survival in %,"[1]; dilution of the astrocyte-conditioned medium 1:4, vehicle alone 59.9 ± 8",90.6 ± 4.9 %
same,Motor neuron survival in %,"[1]; dilution of the astrocyte-conditioned medium 1:10, vehicle alone 45.4 ± 4.2",74.8 ± 6.3 %
same,Motor neuron survival in %,"[1]; dilution of the astrocyte-conditioned medium 1:50, vehicle alone 36.9 ± 3.2",49.6 ± 5.3 %
same,"% of labelled motor neurons, very large motor neurons",[2]; 0.1 μM,122.6 ± 8.2 %
same,"% of labelled motor neurons, all the motor neurons",[2]; 0.1 μM,123 ± 9.3 %
same,"% of labelled motor neurons, very large motor neurons",[2]; 1 μM,117 ± 5.6 %
same,"% of labelled motor neurons, all the motor neurons",[2]; 1 μM,158.9 ± 32 %
same,"% of labelled motor neurons, all the motor neurons",[2]; 10 μM,137.5 ± 19 %
same,Motor neuron survival in %,[3]; tested product 1 nM,42.5 ± 4%
same,Motor neuron survival in %,[3]; tested product 10 nM,48.9 ± 3 %
same,Motor neuron survival in %,[3]; tested product 100 nM,57.4 ± 4 %
same,Motor neuron survival in %,[3]; tested product 1 μM,68.7 ± 8 %
same,Neuronal arborization and cell morphology,[4],remain well preserved
same,Increase of the survival of trophic factor-deprived motor neurons,[4]; p<0.001,60%

# From patent US6451818B1, “Therapeutic use of 1,6-dimethyl-8β-hydroxymethyl-10α-methoxyergoline” (Aventis Pharma S.A., priority 1998, dated 2002)
